Type in all cases: cell-based, human
Assay [1] has as its system MDA-MB-231 breast adenocarcinoma. Put plainly: cells. The settings on record: breast cancer cells, 3-6 days, MTT, triplicate, read-out: IC50 MDSMB231 Breast. On the procedure:
(§1) Antiproliferative assay: The cytotoxicities of arimetamycins A (1), B (2) and C (3) were evaluated using four human cancer cell lines: HCT-116 colon carcinoma (ATCC; CCL-247) [M. G. Brattain, W. D. Fine, F. M. Khaled, J. Thompson, D. E. Brattain, Cancer Res 1981, 41, 1751-1756], WiDr colorectal adenocarcinoma (ATCC; CCL-218) [P. Noguchi, R. Wallace, J. Johnson, E. M. Earley, S. O'Brien, S. Ferrone, M. A. Pellegrino, J. Milstien, C. Needy, W. Browne, J. Petricciani, In vitro 1979, 15, 401-408], MDR-MB-231 breast adenocarcinoma (ATCC; HTB-26) [B. R. Brinkley, P. T. Beall, L. J. Wible, M. L. Mace, D. S. Turner, R. M. Cailleau, Cancer Res 1980, 40, 3118-3129] and H69AR multidrug resistant lung carcinoma (ATCC; CRL-11351) [S. E. Mirski, J. H. Gerlach, S. P. Cole, Cancer Res 1987, 47, 2594-2598] cell lines. HCT-116 and H69AR cells were grown in McCoy's 5A Modified Medium (Gibco) supplemented with 10% (v/v) FBS and RPMI-1640 (ATCC) supplemented with 20% (v/v) FBS, respectively. WiDr and MDA-MB-231 cells were grown in DMEM Medium (Gibco) supplemented with 10% (v/v) FBS. All the cell lines were incubated at 37° C. with 5% CO2. Cells in log phase growth were harvested by trypsinization. Cells were seeded into 96-well plates (HCT-116: 1,000 cells/well, WiDr: 3,000 cells/well, MDA-MB-231: 8,000 cells/well, H69AR: 25,000 cells/well) and incubated overnight at 37° C. with 5% CO2. Compounds 1-3 (in DMSO) were sequentially diluted (3-fold starting at 50 μg/mL) across a 96-well plate and 100 μL was transferred to the appropriate wells in the assay plates. Doxorubicin (Sigma-Aldrich) and daunorubicin (Sigma-Aldrich) were used as positive controls and DMSO was used as a negative control. The plates were incubated at 37° C. for 3-6 days depending on the growth rate and then evaluated for viability using either an MTT (3-(4,5-Dimethylthiazol-2-yl)-2,5-diphenyltetrazolium bromide) (MDR-MB-231 and H69AR) or crystal violet (HCT-116 and WiDr) based colorimetric assay [R. Supino, Methods in molecular biology 1995, 43, 137-149; bD. Zivadinovic, B. Gametchu, C. S. Watson, Breast Cancer Res 2005, 7, R101-112]. Cell viability is recorded based on the percent stain present in each well relative to no drug DMSO control wells. Assays were run in triplicate.

In assay [2] the test system is H69AR multidrug resistant lung carcinoma. Put plainly: cells. To be noted: multidrug resistant lung cancer cells, 3-6 days, MTT, triplicate, read-out: IC50 H69AR Lung/MDR. The method, then: as §1
For assay [3], the system named is WiDr colorectal adenocarcinoma. The experiment in a line: cells. To be noted: WiDr colon cancer cells, 3-6 days, crystal violet, triplicate. The method, then:
as §1

The test system of another assay is HCT-116 colon carcinoma. The experiment in a line: cells. The settings on record: HCT116 colon cancer cells, 3-6 days, crystal violet, triplicate. On the procedure:
Compounds were tested in HTC 116 cell line, which is an art-recognized isogenic human disease model predictive of activity in human patients. They were tested according to the following standard protocol:
as §1

Assay [4] concerns representative colon, lung and breast cancer cell lines. The experiment in a line: Anticancer activity against colon, lung and breast cancer cell lines (summary over the panel). To be noted: for anticancer activity (in words): colon, lung (MDR) and breast cancer cell lines. The method, then: Arimetamycins A-C (1-3) were evaluated for anticancer activity against representative colon, lung and breast cancer cell lines as described below. The lung cancer line (H69AR) is multidrug resistant (MDR), showing high-level resistance to anthracyclines (50-fold) as well as many other anticancer agents including vincristine, etoposide and mitoxantrone. […] P-glycoprotein expression-dependent MDR is the most clinically significant resistance mechanism affecting the utility of anthracyclines. Compounds of the genus described herein are the first anthracyclines from Streptomyces culture that appear effective against MDR cancers.
as §1

Where two headings read alike, the source gives them in different places.

With `COc1cccc2c1C(=O)c1c(O)c3c(c(O)c1C2=O)C[C@@](O)(C(=O)CO)C[C@@H]3O[C@H]1C[C@H](N)[C@H](O)[C@H](C)O1` [Doxorubicin, doxorubicin, reference compound], the IC50 stood at 970 nM in assay [1] (Homo sapiens, MDA-MB-231); 18400 nM in assay [2] (Homo sapiens, H69AR); 30.9 nM in assay [3] (Homo sapiens); 22.5 nM in the assay with HCT-116 colon carcinoma (Homo sapiens, HCT-116).

As to `COc1cc(O)c2c(c1)C(=O)c1cc3c(c(O)c1C2=O)[C@@H](O[C@H]1C[C@H](O)[C@@H](O)[C@H](C)O1)[C@H](OC)[C@](C)(O)C3=O` [Arimetamycin B(2), arimetamycin B], the IC50 in assay [1] amounted to 29600 nM; in assay [2] it was 47100 nM; in assay [3], 7500 nM; with HCT-116 colon carcinoma, 1800 nM. Moreover, the “anticancer activity (in words)” value in assay [4] is recorded as “moderate activity”.

Consider `COc1cccc2c1C(=O)c1c(O)c3c(c(O)c1C2=O)C[C@@](O)(C(C)=O)C[C@@H]3O[C@H]1C[C@H](N)[C@H](O)[C@H](C)O1` [Daunorubicin, daunorubicin, reference compound], for which the IC50 in assay [1] stood at 330 nM; in assay [2], 4800 nM; in assay [3] it was 5.5 nM; with HCT-116 colon carcinoma, 6.8 nM.

For `COc1cc(O)c2c(c1)C(=O)c1cc3c(c(O)c1C2=O)[C@@H](O[C@H]1C[C@H](OC)[C@@H](O)[C@H](C)O1)[C@H](OC)[C@](C)(O)C3=O` [Arimetamycin C(3), arimetamycin C], the IC50 in assay [1] was determined as 27700 nM; in assay [2] it was 18800 nM; in assay [3], 5200 nM; in the assay on HCT-116 colon carcinoma, 1400 nM. Besides, in assay [4], the “anticancer activity (in words)” value is listed as “moderate activity”.

Regarding `COc1cc(O)c2c(c1)C(=O)c1cc3c(c(O)c1C2=O)[C@@H](O[C@H]1C[C@](C)(N(C)C)[C@H](O[C@H]2C[C@](C)(O)[C@H](N(C)C)[C@H](C)O2)[C@H](C)O1)[C@H](OC)[C@](C)(O)C3=O` [Arimetamycin A(1), arimetamycin A], the IC50 in assay [1] was found to be 164 nM; in assay [2] it was 67 nM; in assay [3], 0.5 nM; in the assay on HCT-116 colon carcinoma it was 2.5 nM. Besides, the “IC50 against all cell lines (in words)” value in assay [4] (all cell lines including the H69AR MDR cell line) is “nanomolar”. Moreover, in assay [4], the “anticancer activity (in words)” value was “highly active against both MDR and drug sensitive cell lines”. The “IC50 fold lower than doxorubicin or daunorubicin” value in assay [4] (compared with either doxorubicin or daunorubicin) is 2-10 fold.

(Values after patent US9833465B2 (priority 2013, dated 2017).)
